This assay deals with human 11β-HSD1 (Homo sapiens, UniProt P28845). The assay is described as follows: biochemical. As to conditions: for inhibition at 0.1 µM: read-out: Biological Test Example 2 Average % inhibition at 100 nm, at 100 nm; for IC50: Biological Test Example 2 IC50 Range, microsomes from CHO cells overexpressing human 11β-HSD1, SPA.

Twelve molecules from patent publication US8828985B2, “Carbamate and urea inhibitors of 11-beta-hydroxysteroid dehydrogenase 1” (Vitae Pharmaceuticals, Inc., priority 2008, dated 2014) can be followed below.

Sequence of human 11β-HSD1 (P28845 whole entry): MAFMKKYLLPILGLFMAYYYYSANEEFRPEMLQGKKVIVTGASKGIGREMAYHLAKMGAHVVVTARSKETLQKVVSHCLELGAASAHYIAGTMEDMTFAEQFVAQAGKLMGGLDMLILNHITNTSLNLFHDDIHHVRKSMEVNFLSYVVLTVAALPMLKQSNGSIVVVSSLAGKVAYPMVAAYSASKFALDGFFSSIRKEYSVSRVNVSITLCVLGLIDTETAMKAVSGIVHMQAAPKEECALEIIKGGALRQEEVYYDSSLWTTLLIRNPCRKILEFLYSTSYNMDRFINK

With `N#Cc1ccc(N2CCC3CN(C(=O)O[C@H]4C5CC6CC4C[C@](C(N)=O)(C6)C5)CC32)nc1` (stereo partly drawn) [Example 76, (trans-1-carbamoyl-4-adamantyl) 1-(5-cyanopyridin-2-yl)hexahydropyrrolo[3,4-b]pyrrole-5(1H)-carboxylate], the IC50 (usually the point on the concentration scale where inhibition reaches its midpoint) was less than 100 nM. Also, the inhibition – broadly, the relative decrease from the control value, in per cent – at 0.1 µM (1.5 h) was determined as 97.9%. Moreover, the inhibition at 0.111 µM (1.5 h, read-out: Biological Test Example 2 Average % inhibition at 111 nm, at 111 nm) worked out at 101%.
The molecule `N#Cc1ccc(N[C@@H]2CCN(C(=O)O[C@H]3C4CC5CC3C[C@](O)(C5)C4)C2)cc1` [Example 78, (R)-(trans-1-hydroxy-4-adamantyl) 3-(4-cyanophenylamino)pyrrolidine-1-carboxylate] yielded an IC50 of less than 100 nM. Moreover, the inhibition at 0.1 µM (1.5 h) stood at 80.1%.
Regarding `N#Cc1cccnc1N[C@@H]1CCN(C(=O)O[C@H]2C3CC4CC2C[C@](O)(C4)C3)C1` [Example 80, (R)-(trans-1-hydroxy-4-adamantyl) 3-(3-cyanopyridin-2-ylamino)pyrrolidine-1-carboxylate], the IC50 was less than 100 nM.
On to `N#Cc1cncc(N[C@@H]2CCN(C(=O)O[C@H]3C4CC5CC3C[C@](O)(C5)C4)C2)n1` [Example 81, (R)-(trans-1-hydroxy-4-adamantyl) 3-(6-cyanopyrazin-2-ylamino)pyrrolidine-1-carboxylate], for which the IC50 was less than 100 nM. Further, the inhibition at 0.1 µM (1.5 h) came to 54.4%.
The corresponding values for `N#Cc1cnc(N[C@@H]2CCN(C(=O)O[C@H]3C4CC5CC3C[C@](O)(C5)C4)C2)s1` [Example 82, (R)-(trans-1-hydroxy-4-adamantyl) 3-(5-cyanothiazol-2-ylamino)pyrrolidine-1-carboxylate] are less than 100 nM and 86.6%.
For the molecule `Cc1ccc(C#N)c(N[C@@H]2CCN(C(=O)O[C@H]3C4CC5CC3C[C@](O)(C5)C4)C2)n1` [Example 83, (R)-(trans-1-hydroxy-4-adamantyl) 3-(3-cyano-6-methylpyridin-2-ylamino)pyrrolidine-1-carboxylate], the IC50 was less than 100 nM. For the same molecule, the inhibition at 0.1 µM (1.5 h) is 98.5%.
For `Cc1nc(N[C@@H]2CCN(C(=O)O[C@H]3C4CC5CC3C[C@](O)(C5)C4)C2)ccc1C#N` [Example 84, (R)-(trans-1-hydroxy-4-adamantyl) 3-(5-cyano-6-methylpyridin-2-ylamino)pyrrolidine-1-carboxylate] the same measures were less than 100 nM and 71.6%.
Regarding `O=C(O[C@H]1C2CC3CC1C[C@](O)(C3)C2)N1CC[C@@H](Nc2ncnc3ccccc23)C1` [Example 85, (R)-(trans-1-hydroxy-4-adamantyl) 3-(quinazolin-4-ylamino)pyrrolidine-1-carboxylate], the IC50 is less than 100 nM. For the same molecule, the inhibition at 0.1 µM (1.5 h) was 64%.
The corresponding values for `N#Cc1cc(Cl)cnc1N[C@@H]1CCN(C(=O)O[C@H]2C3CC4CC2C[C@](O)(C4)C3)C1` [Example 86, (R)-(trans-1-hydroxy-4-adamantyl) 3-(5-chloro-3-cyanopyridin-2-ylamino)pyrrolidine-1-carboxylate] are less than 100 nM and 101%.
The corresponding values for `N#Cc1cnc(N[C@@H]2CCN(C(=O)O[C@H]3C4CC5CC3C[C@](O)(C5)C4)C2)c(Cl)c1` [Example 87, (R)-(trans-1-hydroxy-4-adamantyl) 3-(3-chloro-5-cyanopyridin-2-ylamino)pyrrolidine-1-carboxylate] are less than 100 nM and 100%.
The molecule `Cc1nccc2nc(N[C@@H]3CCN(C(=O)O[C@H]4C5CC6CC4C[C@](O)(C6)C5)C3)ccc12` [Example 88, (R)-(trans-1-hydroxy-4-adamantyl) 3-(5-methyl-1,6-naphthyridin-2-ylamino)pyrrolidine-1-carboxylate] gave an IC50 of less than 100 nM. Also, the inhibition at 0.1 µM (1.5 h) came out at 69.4%.
For `CN(C)C(=O)c1cccnc1N[C@@H]1CCN(C(=O)O[C@H]2C3CC4CC2C[C@](O)(C4)C3)C1` [Example 89, (R)-(trans-1-hydroxy-4-adamantyl) 3-(3-(dimethylcarbamoyl)pyridin-2-ylamino)pyrrolidine-1-carboxylate] the same measures were more than 100 nM and 39.1%.
